Assay [1] deals with T1, EGFR(L858R_T790M_C797S) (aa695-end, Invitrogen) (Homo sapiens, UniProt P00533, C797S/L858R/T790M).
T1 construct: purchased Invitrogen
In words: Biochemical EGFR inhibition assay (TR-FRET), L858R/T790M/C797S mutant. The note with it: ATP at Km, 15 min pre-incubation, 60 min reaction; read-out: LR_TM_CS (Km ATP) IC50. How it is done: (§1) Compounds were tested for inhibition of kinase activity against EGFR (aa668-1210, Invitrogen), EGFR(L858R_T790M_C797S) (aa695-end, Invitrogen) and EGFR(Dell9_T790M_C797S) (aa 669-1210, in house) in assays based on time-resolved fluorescence-resonance energy transfer (TR-FRET) methodology. Recombinant EGFR, EGFR(L858R_T790M_C797S) or EGFR(Dell9_T790M_C797S) was pre-incubated with the compounds at room temperature for 15 minutes in an assay buffer containing 50 mM HEPES pH7.5, 10 mM MgCl2, 2 mM DTT, 1 mM EGTA, 0.1% BSA, 0.01% Tween-20. The reactions were initiated by the addition of ATP (at the concentration of ATP Km) and substrate Biotin-Poly GT. After reaction at room temperature for 60 minutes, stop/detection solution was added. The stop/detection solution contained Eu^3+ cryptate-conjugated mouse monoclonal antibody (PT66) anti-phosphotyrosine and XL665-conjugated streptavidin in buffer containing 50 mM HEPES pH7.0, 800 mM KF, 20 mM EDTA, and 0.1% BSA. Plates were sealed and incubated at room temperature for 1 hour, and the TR-FRET signals (ratio of fluorescence emission at 665 nm over emission at 620 nm with excitation at 337 nm wavelength) were recorded on a PHERAstar FS plate reader (BMG Labtech). The residual enzyme activity in presence of increasing concentrations of compounds was calculated based on the ratio of fluorescence at 665 nm to that at 620 nm. The IC50 for each compound was derived from fitting the data to the four-parameter logistic equation by Dotmatics or Graphpad Prism software.
(§2) These biochemical EGFR enzyme form compound dose-response assays quantify the kinase activity via phosphorylation of a tagged poly-GT substrate. The results of the assay are provided as IC50 values.

Assay [2] concerns the target EGFR(Dell9_T790M_C797S) (aa 669-1210, in house) (Homo sapiens, UniProt P00533, T790M/C797S, form not given). In words: Biochemical EGFR inhibition assay (TR-FRET), Del19/T790M/C797S mutant. To be noted: ATP at Km, 15 min pre-incubation, 60 min reaction; read-out: Del_TM_CS (Km ATP) IC50. The method, then: as §1, §2
For assay [3], the target named is T2, EGFR (aa668-1210, Invitrogen) (Homo sapiens, UniProt P00533).
T2 construct: EGFR (aa668-1210, Invitrogen); purchased Invitrogen
The assay is described as follows: Biochemical EGFR inhibition assay (TR-FRET), wild-type EGFR. The note with it: ATP at Km, 15 min pre-incubation, 60 min reaction; read-out: WT (Km ATP) IC50. The method, then: as §1, §2

T1 sequence (P00533 695-1210 T790M/C797S/L858R): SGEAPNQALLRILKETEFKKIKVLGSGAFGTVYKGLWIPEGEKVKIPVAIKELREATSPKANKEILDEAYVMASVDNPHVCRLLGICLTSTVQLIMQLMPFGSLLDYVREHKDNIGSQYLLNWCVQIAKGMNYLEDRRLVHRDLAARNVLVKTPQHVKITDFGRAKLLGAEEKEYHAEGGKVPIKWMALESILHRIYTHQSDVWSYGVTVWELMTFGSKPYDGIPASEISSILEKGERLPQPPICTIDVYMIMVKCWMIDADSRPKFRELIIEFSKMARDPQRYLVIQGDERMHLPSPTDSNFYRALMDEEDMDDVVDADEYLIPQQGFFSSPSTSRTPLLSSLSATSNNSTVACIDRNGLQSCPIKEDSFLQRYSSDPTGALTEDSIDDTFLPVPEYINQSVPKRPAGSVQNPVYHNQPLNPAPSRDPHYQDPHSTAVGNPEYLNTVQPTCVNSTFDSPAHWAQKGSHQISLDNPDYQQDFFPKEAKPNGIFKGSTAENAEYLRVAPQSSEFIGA
Sequence of EGFR(Dell9_T790M_C797S) (aa 669-1210, in house) (P00533 with tags, fused parts or gaps DEL746-750/T790M/C797S, form open): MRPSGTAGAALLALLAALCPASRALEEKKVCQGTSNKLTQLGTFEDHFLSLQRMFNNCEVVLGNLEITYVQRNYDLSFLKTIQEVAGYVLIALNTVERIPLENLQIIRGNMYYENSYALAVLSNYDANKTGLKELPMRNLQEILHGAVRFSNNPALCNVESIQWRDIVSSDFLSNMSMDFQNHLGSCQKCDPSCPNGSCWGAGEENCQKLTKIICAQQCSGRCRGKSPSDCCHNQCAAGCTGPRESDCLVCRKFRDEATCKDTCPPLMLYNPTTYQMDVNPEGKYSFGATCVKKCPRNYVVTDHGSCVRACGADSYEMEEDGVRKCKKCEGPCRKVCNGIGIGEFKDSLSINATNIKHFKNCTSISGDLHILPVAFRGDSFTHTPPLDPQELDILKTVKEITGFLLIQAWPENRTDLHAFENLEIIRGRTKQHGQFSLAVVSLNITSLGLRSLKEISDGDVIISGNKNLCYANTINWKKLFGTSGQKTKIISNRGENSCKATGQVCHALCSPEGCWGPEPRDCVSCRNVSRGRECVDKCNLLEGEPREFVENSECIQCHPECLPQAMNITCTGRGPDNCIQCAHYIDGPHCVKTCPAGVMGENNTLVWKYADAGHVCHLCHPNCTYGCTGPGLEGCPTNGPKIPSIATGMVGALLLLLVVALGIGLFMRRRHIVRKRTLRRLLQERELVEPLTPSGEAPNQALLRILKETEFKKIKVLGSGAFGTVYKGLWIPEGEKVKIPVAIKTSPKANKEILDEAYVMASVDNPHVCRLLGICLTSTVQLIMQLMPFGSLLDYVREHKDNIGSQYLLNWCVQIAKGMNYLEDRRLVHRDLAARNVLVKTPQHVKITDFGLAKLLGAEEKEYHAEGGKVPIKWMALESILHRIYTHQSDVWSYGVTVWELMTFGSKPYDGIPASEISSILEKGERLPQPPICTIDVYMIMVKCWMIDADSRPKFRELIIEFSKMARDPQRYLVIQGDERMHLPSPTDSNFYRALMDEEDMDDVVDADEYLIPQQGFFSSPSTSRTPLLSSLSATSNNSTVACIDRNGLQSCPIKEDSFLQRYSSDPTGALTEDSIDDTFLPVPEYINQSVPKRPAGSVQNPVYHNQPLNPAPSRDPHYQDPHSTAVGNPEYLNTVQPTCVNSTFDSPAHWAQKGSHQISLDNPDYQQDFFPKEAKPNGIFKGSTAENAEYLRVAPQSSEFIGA
T2 sequence (P00533 668-1210): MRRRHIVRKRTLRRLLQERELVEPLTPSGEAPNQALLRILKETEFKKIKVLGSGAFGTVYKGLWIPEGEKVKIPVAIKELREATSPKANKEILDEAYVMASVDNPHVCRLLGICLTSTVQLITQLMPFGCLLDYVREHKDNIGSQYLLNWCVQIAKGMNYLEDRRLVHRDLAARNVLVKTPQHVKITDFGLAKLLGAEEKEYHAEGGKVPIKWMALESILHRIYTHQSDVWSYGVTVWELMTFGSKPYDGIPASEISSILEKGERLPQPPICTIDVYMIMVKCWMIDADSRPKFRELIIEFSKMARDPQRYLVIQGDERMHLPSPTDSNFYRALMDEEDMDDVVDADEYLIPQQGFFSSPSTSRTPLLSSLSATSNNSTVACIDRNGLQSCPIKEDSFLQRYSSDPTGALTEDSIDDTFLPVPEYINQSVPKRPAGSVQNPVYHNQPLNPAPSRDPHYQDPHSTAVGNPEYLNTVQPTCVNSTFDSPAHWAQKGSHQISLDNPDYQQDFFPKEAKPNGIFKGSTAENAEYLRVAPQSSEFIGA

As to `COc1cc(N2CCC(N3CCN(C)CC3)CC2)ccc1Nc1ncc(Cl)c(Nc2cccc3c2N(S(=O)(=O)CF)CC3)n1` [Example 12, 5-chloro-N^4-(1-((fluoromethyl)sulfonyl)indolin-7-yl)-N^2-(2-methoxy-4-(4-(4-methylpiperazin-1-yl)piperidin-1-yl)phenyl)pyrimidine-2,4-diamine], the half-maximal inhibitory concentration (IC50) was 1.17 nM in assay [1], 0.44 nM in assay [2] and 3 nM in assay [3].

Regarding `COc1cc(N2CCC(N3CCN(C)CC3)CC2)ccc1Nc1ncc(Br)c(Nc2cccc3c2N(S(C)(=O)=O)CC32CC2)n1` [Example 28, 5-bromo-N^2-(2-methoxy-4-(4-(4-methylpiperazin-1-yl)piperidin-1-yl)phenyl)-N^4-(1′-(methylsulfonyl)spiro[cyclopropane-1,3′-indolin]-7′-yl)pyrimidine-2,4-diamine], the IC50 in assay [1] is 0.44 nM; in assay [2] it was 0.39 nM; in assay [3] it was 0.9 nM.

For `COc1cc(N2C[C@@H](C)N(C)[C@@H](C)C2)c(C)cc1Nc1ncc(Br)c(Nc2cccc3c2N(S(C)(=O)=O)CC3)n1` [Example 42, 5-bromo-N^2-(2-methoxy-5-methyl-4-((3S,5R)-3,4,5-trimethylpiperazin-1-yl)phenyl)-N^4-(1-(methylsulfonyl)indolin-7-yl)pyrimidine-2,4-diamine], the IC50 was 0.4 nM in assay [1], 0.3 nM in assay [2] and 8.5 nM in assay [3].

As for `COc1cc(N2CCN(C)[C@@H](C)C2)c(C)cc1Nc1ncc(Br)c(Nc2cccc3c2N(S(C)(=O)=O)CC3)n1` [Example 43, (S)-5-bromo-N^2-(4-(3,4-dimethylpiperazin-1-yl)-2-methoxy-5-methylphenyl)-N^4-(1-(methylsulfonyl)indolin-7-yl)pyrimidine-2,4-diamine], the results for the IC50 in assay [1], in assay [2] and in assay [3] were 0.5 nM, 0.5 nM and 12.1 nM, respectively.

For the compound `COc1cc(N2CCC3(CCN(C)CC3)CC2)c(Cl)cc1Nc1ncc(Br)c(Nc2cccc3c2N(S(C)(=O)=O)CC3)n1` [Example 44, 5-bromo-N^2-(5-chloro-2-methoxy-4-(9-methyl-3,9-diazaspiro[5.5]undecan-3-yl)phenyl)-N^4-(1-(methylsulfonyl)indolin-7-yl)pyrimidine-2,4-diamine], the IC50 turned out to be 0.3 nM in assay [1], 0.7 nM in assay [2] and 3.2 nM in assay [3].

Take `COc1cc(N2CCC3(CC2)CN(C)C3)c(C)cc1Nc1ncc(Br)c(Nc2cccc3c2N(S(C)(=O)=O)CC3)n1` [Example 45, 5-bromo-N^2-(2-methoxy-5-methyl-4-(2-methyl-2,7-diazaspiro[3.5]nonan-7-yl)phenyl)-N^4-(1-(methylsulfonyl)indolin-7-yl)pyrimidine-2,4-diamine]: the IC50 in assay [1] turned out to be 0.2 nM; in assay [2] it was 0.3 nM; in assay [3] it was 1 nM.

Consider `COc1cc(N2CCC(N(C)C)CC2)c(C)cc1Nc1ncc(Br)c(Nc2cccc3c2N(S(C)(=O)=O)CC3)n1` [Example 46, 5-bromo-N^2-(4-(4-(dimethylamino)piperidin-1-yl)-2-methoxy-5-methylphenyl)-N^4-(1-(methylsulfonyl)indolin-7-yl)pyrimidine-2,4-diamine], for which the IC50 in assay [1] turned out to be 0.1 nM; in assay [2] it was 0.2 nM; in assay [3], 0.9 nM.

On to `CN(C)C1CCN(c2ccc(Nc3ncc(Br)c(Nc4cccc5c4N(S(C)(=O)=O)CC5)n3)c3c2CCC3)CC1` [Example 53, 5-bromo-N^2-(7-(4-(dimethylamino)piperidin-1-yl)-2,3-dihydro-1H-inden-4-yl)-N^4-(1-(methylsulfonyl)indolin-7-yl)pyrimidine-2,4-diamine], for which the figures for the IC50 in assay [1], in assay [2] and in assay [3] were 0.32 nM, 0.28 nM and 6.5 nM, respectively.

On to `CN(C)C1CCN(c2ccc(Nc3ncc(Br)c(Nc4cccc5c4N(S(C)(=O)=O)CC5)n3)c3c2CC(C)(C)O3)CC1` [Example 55, 5-bromo-N^2-(4-(4-(dimethylamino)piperidin-1-yl)-2,2-dimethyl-2,3-dihydrobenzofuran-7-yl)-N^4-(1-(methylsulfonyl)indolin-7-yl)pyrimidine-2,4-diamine], for which the IC50 in assay [1] turned out to be 7 nM; in assay [2], 5.82 nM; in assay [3], 64.5 nM.

As to `CN1CCN(c2ccc(Nc3ncc(Br)c(Nc4cccc5c4N(S(C)(=O)=O)CC5)n3)c3c2CC(C)(C)O3)CC1` [Example 56, 5-bromo-N^2-(2,2-dimethyl-4-(4-methylpiperazin-1-yl)-2,3-dihydrobenzofuran-7-yl)-N^4-(1-(methylsulfonyl)indolin-7-yl)pyrimidine-2,4-diamine], the IC50 was 23.3 nM in assay [1], 10.6 nM in assay [2] and 241 nM in assay [3].

Consider `CN1CCN(C2CCN(c3ccc(Nc4ncc(Br)c(Nc5cccc6c5N(S(C)(=O)=O)CC6)n4)c4c3CC(C)(C)O4)CC2)CC1` [Example 57, 5-bromo-N^2-(2,2-dimethyl-4-(4-(4-methylpiperazin-1-yl)piperidin-1-yl)-2,3-dihydrobenzofuran-7-yl)-N^4-(1-(methylsulfonyl)indolin-7-yl)pyrimidine-2,4-diamine], for which the IC50 came out at 17.1 nM in assay [1], 8.79 nM in assay [2] and 101 nM in assay [3].

For the compound `CN1CCN(c2c(F)cc(Nc3ncc(Br)c(Nc4cccc5c4N(S(C)(=O)=O)CC5)n3)c3c2CCO3)CC1` [Example 58, 5-bromo-N^2-(5-fluoro-4-(4-methylpiperazin-1-yl)-2,3-dihydrobenzofuran-7-yl)-N^4-(1-(methylsulfonyl)indolin-7-yl)pyrimidine-2,4-diamine], the figures for the IC50 in assay [1], in assay [2] and in assay [3] were 1.7 nM, 1.57 nM and 10.3 nM, respectively.

Take `CN(C)C1CCN(c2c(F)cc(Nc3ncc(Br)c(Nc4cccc5c4N(S(C)(=O)=O)CC5)n3)c3c2CCO3)CC1` [Example 59, 5-bromo-N^2-(4-(4-(dimethylamino)piperidin-1-yl)-5-fluoro-2,3-dihydrobenzofuran-7-yl)-N^4-(1-(methylsulfonyl)indolin-7-yl)pyrimidine-2,4-diamine]: the IC50 in assay [1] was 0.2 nM; in assay [2], 0.24 nM; in assay [3], 1.1 nM.

With `CN1CCN(C2CCN(c3c(F)cc(Nc4ncc(Br)c(Nc5cccc6c5N(S(C)(=O)=O)CC6)n4)c4c3CCO4)CC2)CC1` [Example 60, 5-bromo-N^2-(5-fluoro-4-(4-(4-methylpiperazin-1-yl)piperidin-1-yl)-2,3-dihydrobenzofuran-7-yl)-N^4-(1-(methylsulfonyl)indolin-7-yl)pyrimidine-2,4-diamine], the IC50 came to 0.3 nM in assay [1], 0.35 nM in assay [2] and 0.5 nM in assay [3].

As for `CC1Cc2c(N3CCC(N4CCN(C)CC4)CC3)ccc(Nc3ncc(Br)c(Nc4cccc5c4N(S(C)(=O)=O)CC5)n3)c2O1` (stereo not drawn) [Example 61, 5-bromo-N^2-(2-methyl-4-(4-(4-methylpiperazin-1-yl)piperidin-1-yl)-2,3-dihydrobenzofuran-7-yl)-N^4-(1-(methylsulfonyl)indolin-7-yl)pyrimidine-2,4-diamine], the IC50 is 1.5 nM in assay [1], 1.58 nM in assay [2] and 15.2 nM in assay [3].

Take `CC1Cc2c(N3CCN(C)CC3)ccc(Nc3ncc(Br)c(Nc4cccc5c4N(S(C)(=O)=O)CC5)n3)c2O1` (stereo not drawn) [Example 62, 5-bromo-N^2-(2-methyl-4-(4-methylpiperazin-1-yl)-2,3-dihydrobenzofuran-7-yl)-N^4-(1-(methylsulfonyl)indolin-7-yl)pyrimidine-2,4-diamine]: the figures for the IC50 in assay [1], in assay [2] and in assay [3] were 0.68 nM, 0.42 nM and 11.6 nM, respectively.

`CC1Cc2c(N3CCC(N(C)C)CC3)ccc(Nc3ncc(Br)c(Nc4cccc5c4N(S(C)(=O)=O)CC5)n3)c2O1` (stereo not drawn) [Example 65, 5-bromo-N^2-(4-(4-(dimethylamino)piperidin-1-yl)-2-methyl-2,3-dihydrobenzofuran-7-yl)-N^4-(1-(methylsulfonyl)indolin-7-yl)pyrimidine-2,4-diamine]: the results for the IC50 in assay [1], in assay [2] and in assay [3] were 0.48 nM, 0.63 nM and 5.5 nM, respectively.

On to `CCN1CCN(C2CCN(c3c(F)cc(Nc4nc(Nc5cccc6c5N(S(C)(=O)=O)CC6)c5cc[nH]c5n4)cc3F)CC2)CC1` [Example 78, N^2-(4-(4-(4-ethylpiperazin-1-yl)piperidin-1-yl)-3,5-difluorophenyl)-N^4-(1-(methylsulfonyl)indolin-7-yl)-7H-pyrrolo[2,3-d]pyrimidine-2,4-diamine], for which the IC50 in assay [1] amounted to 1.5 nM; in assay [2], 2 nM; in assay [3], 99 nM.

The record behind these values is patent US20260167619A2, “INDOLINE COMPOUNDS AND DERIVATIVES AS EGFR INHIBITORS” (BeOne Medicines I GmbH, priority 2020, published 2026).
